Laboratory results published in paper PMC3805590, “Isozyme-Specific Ligands for O-acetylserine sulfhydrylase, a Novel Antibiotic Target” (PLoS ONE, 2013).
Several values for one entry are separate records, joined by “and”; a condition that tells them apart may be missing. Equal entries are not always repeated.

What was measured:
OASS-A = target: T1, OASS-A (Salmonella typhimurium, UniProt P0A1E3); assay: Ligand binding affinity to OASS-A by PLP fluorescence titration; conditions: for Kd: PLP fluorescence at 500 nm, excitation 412 nm, 100 mM Hepes pH 7.0, 20 °C
T1 construct: OASS-A and OASS-B were expressed and purified as previously described; made in house
T1 sequence (P0A1E3 whole entry): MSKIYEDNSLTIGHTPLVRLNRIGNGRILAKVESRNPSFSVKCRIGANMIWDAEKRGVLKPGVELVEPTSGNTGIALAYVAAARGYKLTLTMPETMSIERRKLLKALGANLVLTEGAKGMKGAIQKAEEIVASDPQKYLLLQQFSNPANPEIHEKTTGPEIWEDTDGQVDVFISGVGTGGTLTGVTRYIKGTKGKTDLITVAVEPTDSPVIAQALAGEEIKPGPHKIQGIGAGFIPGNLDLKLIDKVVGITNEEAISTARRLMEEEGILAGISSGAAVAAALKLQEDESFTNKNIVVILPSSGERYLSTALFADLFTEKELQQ
Procedure: (§1) OASS-A and OASS-B were expressed and purified as previously described. The binding affinity of selected ligands to OASS-A and OASS-B was determined by monitoring the increase in fluorescence emission of the bound PLP at 500 nm following excitation at 412 nm, [55]. Emission spectra were collected at increasing ligand concentrations in the presence of 0.05–1 µM OASS, 100 mM Hepes buffer, pH 7.0 at 20°C. DMSO and/or potassium hydroxide were added when needed to solubilize the compounds and pH was checked to be between 7 and 8.5. Spectra were corrected for the buffer contribution. Fluorescence measurements were carried out using a FluoroMax-3 fluorometer (HORIBA-Jobin Yvon), equipped with a thermostated cell-holder.
(§2) The dependence of fluorescence intensity at 500 nm on ligand concentration was fitted to a binding isotherm: [drawing 1] (1) where I is the fluorescence intensity at 500 nm in the presence of the ligand, I0 is the fluorescence intensity in the absence of ligand, Imax is the maximum fluorescence change at saturating ligand concentrations, [L] is the ligand concentration, and Kd is the dissociation constant of the OASS-ligand complex. This measurement is a direct determination of ligand dissociation constant in the absence of substrate, thus it coincides with Ki, independently from the inhibition mechanism.
(§3) A total of 12 compounds for OASS-A (Table 1) and 11 compounds for OASS-B (Table 2) predicted to be potential ligands were experimentally tested by determining their dissociation constants exploiting PLP fluorescence changes as a function of ligand concentration. The observed increases in coenzyme fluorescence and the concomitant blue shifts of the peaks upon ligand binding result from the closure of the active site – thus altering the coenzyme microenvironment, [55]. It is important to point out that the evaluated dissociation constants for these compounds correspond to their inhibition constants, Ki, because they occupy the enzyme active site, [19], and, therefore, are purely competitive inhibitors.

OASS-B = target: T2, OASS-B (Salmonella typhimurium, UniProt P29848); assay: Ligand binding affinity to OASS-B by PLP fluorescence titration; conditions: PLP fluorescence at 500 nm, excitation 412 nm, 100 mM Hepes pH 7.0, 20 °C
T2 construct: OASS-A and OASS-B were expressed and purified as previously described; made in house
T2 sequence (P29848 whole entry): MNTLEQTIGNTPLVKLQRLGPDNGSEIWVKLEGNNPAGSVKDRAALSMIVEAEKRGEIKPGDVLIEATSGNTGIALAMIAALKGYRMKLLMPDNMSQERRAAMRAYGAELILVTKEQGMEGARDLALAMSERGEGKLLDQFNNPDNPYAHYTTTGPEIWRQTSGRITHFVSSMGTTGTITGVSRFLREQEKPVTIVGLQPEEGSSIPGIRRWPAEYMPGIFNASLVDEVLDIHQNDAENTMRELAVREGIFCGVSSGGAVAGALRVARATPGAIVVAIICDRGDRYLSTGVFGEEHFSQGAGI
Procedure: as §1, §2, §3

OASS = assay: Reaction or time-dependent inactivation of OASS by ligand; format: biochemical, Salmonella typhimurium; conditions: under the paper's experimental conditions
[1] = system: S. typhimurium knock-out for cysteine synthase; design: method as in PMID 18957594; conditions: cysteine synthase knock-out vs wild type; cited from earlier work

Structure (SMILES) | Kd (OASS-A) | Kd (OASS-B) [µM] | also measured
O=C(O)CNC(=O)CNC(=O)C1C2C=CC(C2)C1C(=O)O (centres unmarked) [Compound 1] | 3.8 µM and < 100 µM and 3.7 µM | 50 ± 5 | 
O=C(O)C1CC=CCC1C(=O)Nc1nncs1 (centres unmarked) [Compound 2] | 82 ± 18 µM | > 1500 | 
CC(C)C(NS(=O)(=O)c1cccs1)C(=O)O (centres unmarked) [Compound 3] | 95 ± 10 µM | > 1500 | 
O=C(O)CC(C(=O)O)c1ccccc1 (centres unmarked) [Compound 4] | 103 ± 9 µM |  | 
O=C(O)C1CCCCN1S(=O)(=O)c1cccc([N+](=O)[O-])c1 (centres unmarked) [Compound 5] | 218 ± 61 µM |  | 
O=C(O)C1CC=CCC1C(=O)NCc1ccncc1 (centres unmarked) [Compound 6] | 283 ± 19 µM |  | 
CC(C)CC(NC(=O)c1ccco1)C(=O)O (centres unmarked) [Compound 7] | 558 ± 131 µM |  | 
CC1=C(C(=O)O)N2C(=O)C(NC(=O)c3nn(C)cc3[N+](=O)[O-])C2SC1 (centres unmarked) [Compound 8] | 732 ± 72 µM |  | 
O=C(NC(Cc1ccccc1)C(=O)O)c1ccco1 (centres unmarked) [Compound 9] | 1300 ± 400 µM |  | 
Cc1nnc(NC(=O)c2c(C(=O)O)cccc2[N+](=O)[O-])s1 [Compound 10] | > 1500 µM |  | 
O=C(O)c1ccoc1CN1CCOCC1 [Compound 11] | > 1500 µM |  | 
CC(C)CC(NC=C1C(=O)OC(C)(C)OC1=O)C(=O)O (centres unmarked) [Compound 12] | > 1500 µM |  | binding to OASS-A (in words) (OASS-A; fluorimetric titration): no binding was observed
O=C(O)/C=C(/Cl)CC(=O)O [Compound 13] | 29 ± 3 µM | 33 ± 2 | reaction or time-dependent inactivation of OASS (OASS): no reaction or time-dependent inactivation of OASS was observed
Cn1nnnc1Sc1ncccc1C(=O)O [Compound 14] | > 1500 µM | 810 ± 110 | 
O=C(O)CSc1nsc(SCC(=O)O)n1 [Compound 16] |  | > 1500 | 
CC1(C)OC(=O)C(=CNC(CCC(=O)O)C(=O)O)C(=O)O1 (centres unmarked) [Compound 17] |  | > 1500 | 
CC1(C(=O)O)Cc2oncc2CC1C(=O)O (centres unmarked) [Compound 18] |  | > 1500 | 
O=C(O)CCN(CCC(=O)O)S(=O)(=O)c1ccccc1 [Compound 19] |  | > 1500 | 
CCC1([N+](=O)[O-])CN(CC(=O)O)CN(CC(=O)O)C1 [Compound 21] |  | > 1500 | 
C[S+]([O-])CCC(NS(=O)(=O)c1ccccc1)C(=O)O (centres unmarked) [Compound 22] |  | > 1500 | 
CCn1ncc([N+](=O)[O-])c1C(=O)O [Compound 23] |  | > 1500 | 
O=C(O)c1cn(C2CC2)c2cc(N3CCNCC3)c(F)cc2c1=O [ciprofloxacin] |  |  | MIC lower than wild type bacterium [1]: 500 fold
